Reference: patent US8377899B2, “Composition for treatment of cervix cancer” (priority 2006, dated 2013)

Tests used:
HeLa cells [1] = experiment: Western blotting of p53 in HeLa cells treated with cisplatin; type: cell-based; settings: 40 μM of cisplatin
Experimental: To investigate the effect of cisplatin on cervix cancer cells, HeLa cells were treated with cisplatin. 24 hours before the treatment, 1×10^6 cells were distributed in 100 mm culture dish and cultured at 37° C. with 5% CO2 and 100% humidity. Then, the cells were treated with 40 μM of cisplatin. 24 hours later, Western blotting was performed to measure the level of p53.

HeLa cells [2] = experiment: MTT assay, cytotoxic effect of cisplatin; type: cell-based; settings: cisplatin 0.625-80 μM for 48 hours
Experimental: The present inventors also investigated cytotoxic effect of cisplatin on HeLa cells by MTT assay. HeLa cells were treated with different concentrations of cisplatin (0.625, 1.25, 2.5, 5, 10, 25, 40, and 80 μM) for 48 hours, followed by MTT assay to measure the cell growth inhibitory effect.

HeLa cells [3] = experiment: Long-term combination therapy of E6 siRNA and cisplatin, trypan blue cell count; type: cell-based; settings: 7th day; siRNA 100 nM transfected twice and/or cisplatin 1.25 μM for 4 days
Experimental: To evaluate cytotoxic effect of the long-term combination therapy of synthetic E6 siRNA and cisplatin chemotherapy on cervix cancer cells, HeLa cells were co-treated for a long period of time.
Then, the single therapy group (treated with 18E6-1 siRNA, 18E6-2 siRNA or cisplatin alone) and the combination therapy group (treated with cisplatin and 18E6-1 siRNA or 18E6-2 siRNA) were compared. To obtain the maximum RNAi efficiency, siRNA transfection was repeated after 24 hours from the first transfection. For the transfection, 13 μl of opti-MEM (Gibco, USA) and 2 μl of oligofectamine were added into a 1.5 ml E-tube. To the other 1.5 ml E-tube were added 100 nM of siRNA and opti-MEM to make total volume […]. 5 minutes later, the content of the E-tube containing oligofectamine was transferred into the other E-tube to make the total volume 200 μl, which stood by for 20 minutes to form a complex. […] On the 7th day of culture, the cells were recovered by treating with trypsin, stained with 0.3% trypan blue solution and counted with hemocytometer.
The cells were cultured in normal growth medium for additional 7 days, and harvested by treating them with trypsin. The cells were stained with 0.3% trypan blue and counted with hemocytometer (FIG. 11). […]

HeLa cells [4] = experiment: Cell morphology after single and combination therapy (phase contrast microscope); type: cell-based; settings: 7th day of the treatment
From the text: The present inventors cultured the cells in normal media additionally for 7 days to observe morphological changes.

HeLa cells [5] = experiment: Apoptosis, annexin V and propidium iodide flow cytometry; type: cell-based; settings: 7th day of the treatment, attached cells
From the text: To examine apoptosis in the cells treated with 18E6-1 siRNA or 18E6-2 siRNA, the cells attached on the 7th day of the treatment were collected, stained with annexin V and propidium iodide (PI) and analyzed by flow cytometry. Apoptosis rates between the single therapy group and the combination therapy group were compared.

HeLa cells [6] = experiment: Senescence, SA β-Gal activity staining; type: cell-based
Experimental: The present inventors further investigated whether the combination therapy of cisplatin with 18E6 siRNAs induced HeLa cell senescence. The inventors measured SA β-Gal activity on the 7th day of the treatment. The cells were washed with PBS using a senescence detection kit (BIoVision, USA) and treated with SA-β-gal staining solution at 37° C. for 12 hours. The cells stained with blue were observed under microscope (×100-200).
Three photographs of the cells were taken randomly to investigate the stained cells (FIG. 17).

HeLa-Luc cells = experiment: Cervix cancer xenograft model, luciferase bioluminescence tumor size; type: in vivo, balb-C nude mouse; settings: after 2 weeks; siRNA 2 mg/kg and/or cisplatin 0.5 mg/kg, intraperitoneal, every other day by turns, 7 times
Experimental: To generate the cervix cancer xenograft model, 5×10^6 HeLa-Luc cells were injected subcutaneously into a 5 week old female balb-C nude mouse. 7 days later, tumor generation was confirmed. Then, the mouse was treated with siRNA (2 mg/kg) and cisplatin (0.5 mg/kg) every other day by taking turns, 7 times (intraperitoneal injection).
Isofluran was used as an anesthetic for in vivo imaging. Luciferase activity, which increases with the growth of a tumor, was measured 15 minutes after intraperitoneal injection of luciferin.
Bioluminescence signal released by luciferase was represented as the unit of photons/second/steradian/cm2, and the luciferase signal increases as the tumor grew.

Compound: N.N.[Cl][Pt][Cl] [cisplatin]
- expression level of p53 (HeLa cells [1]): dramatically increased
- time at which the level of p53 reached the peak (HeLa cells [1]): 24 h
- time for which the high level of p53 was constantly observed (HeLa cells [1]): 48 h
- cell survival rate (HeLa cells [2]): reduced cisplatin dose dependently
- cell growth (cell number) (HeLa cells [3]): not significant
- cell growth observed by microscope (HeLa cells [4]): grown regularly
- apoptosis (HeLa cells [5]): not increased
- number of stained cells in three random photographs (HeLa cells [6]; 7th day of the treatment (FIG. 17)): Only a small amount of cells were stained
- SA-β-Gal stained (blue) cells (HeLa cells [6]; 7th day of the treatment, microscope (FIG. 16)): some of the blue cells
- tumor size (HeLa-Luc cells): not much different
